# Laboratory results published in patent US20030166202A1, “P450 Monooxygenases of the cyp79 family” (priority 2000, published 2003).
# Like-named read-outs stand apart in the source and are kept apart here.
# T1: CYP79A2 (Arabidopsis thaliana, UniProt Q9FLC8)
# T1 sequence (Q9FLC8 7-529 limits assumed): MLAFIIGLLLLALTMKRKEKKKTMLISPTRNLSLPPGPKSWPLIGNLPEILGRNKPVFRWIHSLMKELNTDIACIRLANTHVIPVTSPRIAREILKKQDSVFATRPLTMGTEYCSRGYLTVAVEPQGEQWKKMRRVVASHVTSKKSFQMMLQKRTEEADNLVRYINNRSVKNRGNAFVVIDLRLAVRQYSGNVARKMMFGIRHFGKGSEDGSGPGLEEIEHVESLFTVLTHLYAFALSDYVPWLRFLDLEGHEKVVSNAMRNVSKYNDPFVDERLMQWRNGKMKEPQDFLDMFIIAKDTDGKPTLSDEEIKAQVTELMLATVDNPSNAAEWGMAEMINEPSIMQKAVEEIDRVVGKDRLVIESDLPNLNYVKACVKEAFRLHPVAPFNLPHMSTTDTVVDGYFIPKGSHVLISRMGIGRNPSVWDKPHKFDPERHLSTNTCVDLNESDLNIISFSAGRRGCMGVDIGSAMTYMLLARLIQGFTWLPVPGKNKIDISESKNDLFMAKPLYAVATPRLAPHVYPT
# T2: CYP79B2 (Arabidopsis thaliana, UniProt O81346)
# T2 sequence (O81346 1-541): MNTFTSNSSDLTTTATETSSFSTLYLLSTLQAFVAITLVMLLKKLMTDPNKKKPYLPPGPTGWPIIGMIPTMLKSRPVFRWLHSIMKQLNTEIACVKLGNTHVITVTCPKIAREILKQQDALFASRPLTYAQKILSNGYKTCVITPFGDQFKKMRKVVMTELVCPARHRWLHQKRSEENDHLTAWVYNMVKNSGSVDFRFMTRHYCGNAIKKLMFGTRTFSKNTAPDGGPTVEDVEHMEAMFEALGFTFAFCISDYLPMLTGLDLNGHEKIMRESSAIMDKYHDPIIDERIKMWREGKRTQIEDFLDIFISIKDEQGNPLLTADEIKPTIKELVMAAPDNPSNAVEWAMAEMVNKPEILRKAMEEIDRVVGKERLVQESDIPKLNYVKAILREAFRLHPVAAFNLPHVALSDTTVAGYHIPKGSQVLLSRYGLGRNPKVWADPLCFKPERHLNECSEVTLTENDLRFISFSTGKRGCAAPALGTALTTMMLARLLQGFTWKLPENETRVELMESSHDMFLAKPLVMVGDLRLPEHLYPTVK
# Key:
# [1] = target: CYP79F1 (Arabidopsis thaliana, UniProt Q949U1, M2A); conditions: E. coli C43(DE3) spheroplasts, GC-MS or TLC
# Experimental: In a typical enzyme assay, 5 μl spheroplasts and 4 μl NADPH:cytochrome P450 reductase (equivalent to 0.04 units defined as 1 μmol cytochrome c/min) are incubated with substrate in buffer containing 30 mM KPi, pH 7.5, 3 mM NADPH, 3 mM reduced glutathione, 0.042% Tween 80, 1 mg ml^−1 L-α-dilauroylphosphatidylcholine in a total volume of 30 μl. Reaction mixtures containing spheroplasts of E. coli C43(DE3) transformed with empty vector are used as controls in all assays. 3.3 μM L-[U-^14C]phenylalanine (453 mCi/mmol; Pharmacia), 3.7 μM L-[U-^14C]tyrosine (449 mCi/mmol; Pharmacia), 0.1 mM L-[methyl-^14C]methionine (56 mCi/mmol; Pharmacia), and 24 μM L-[side chain-3-^14C]tryptophan (56.5 mCi/mmol; NEN) are tested as potential substrates. After incubation at 28° C. for 1 hour, half of the reaction mixture is analyzed by TLC on Silica Gel 60 F254 sheets (Merck) using toluene/ethyl acetate 5:1 (v/v) as eluent. Radiolabelled bands are visualized and quantified using a STORM 840 phosphoimager (Pharmacia). For GC-MS analysis, 450 μl reaction mixture containing 3.3 mM L-methionine (Sigma), 3.3 mM DL-dihomomethionine or 3.3 mM DL-trihomomethionine, respectively, are incubated for 4 hours at 25° C. and extracted with a total volume of 600 μl CHCl3. The organic phase is collected, evaporated, and the residue is dissolved in 15 μl CHCl3 and analyzed by GC-MS. […] An SGE column (BPX5, 25 m×0.25 mm, 0.25 μm film thickness) is used (heat pressure 100 kPa, splitless injection). The oven temperature program is as follows: 80° C. for 3 minutes, 80° C. to 180° C. at 5° C. min^−1, 180° C. to 300° C. at 20° C. min^−1, and 300° C. for 10 min. The ion source is run in EI mode (70 eV) at 200° C. […] DL-dihomomethionine, DL-trihomomethionine, 5-methylthiopentanaldoxime and 6-methylthiohexanaldoxime are synthesized as described (Dawson et al, J. Biol. Chem. 268: 27154-27159, 1993) and authenticated by NMR spectroscopy.
# [2] = target: T1, CYP79A2; experiment: CYP79A2 activity in E. coli spheroplasts reconstituted with NADPH:cytochrome P450 oxidoreductase
# [3] = target: T2, CYP79B2; experiment: CYP79B2 activity in E. coli spheroplasts reconstituted with NADPH:cytochrome P450 reductase
# Experimental: The activity of CYP79B2 is measured by reconstituting spheroplasts from E. coli expressing CYP79B2 with purified NADPH:cytochrome P450 reductase from Sorghum bicolor (L.) Moench. […] The reaction is incubated at 34° C. for 30 minutes, extracted two times with ethyl acetate and the ethyl acetate phase is analyzed by TLC using toluen:ethyl acetate 5:1 as eluent. Radiolabelled bands are visualized on a Storm 840 phosphorimager (Molecular Dynamics) and quantified with ImageQuant analysis software (Molecular Dynamics). Substrate specificity is investigated by substituting the ^14C-labelled tryptophan with ^14C-labelled tyrosine or phenylalanine. GC-MS is employed to verify the structure of the compound produced from tryptophan by recombinant CYP79B2. A 450 μl reaction mixture as described above containing 2 mM unlabelled tryptophan is incubated at 34° C. for 2 hours. The reaction mixture is extracted twice with 300 μl CHCl3 and lyophilized until dryness. GC-MS is performed with an HP5890 Series II gas chromatograph coupled to a Jeol JMS-AX505W mass spectrometer. Splitless injection on an SGE column (BPX5, 25 mm×0.25 mm, 0.25 μm film thickness) and a head pressure of 100 kPa are used.
# Single colonies are grown overnight at 37° C. in LB medium containing 100 μg/ml ampicillin. 1 ml of the overnight culture is used to inoculate 75 ml TB medium containing 100 μg/ml ampicillin, 75 μg/ml δ-aminolevulinic acid, 1 mM thiamine and 1 mM IPTG. The TB cultures are grown for 44 hours at 125 rpm and 28° C.
# [4] = system: cassava microsomes; experiment: Metabolism of amino acids by cassava microsomes; type: biochemical; conditions: amino acid as substrate
# [5] = target: CYP79D1 (Manihot esculenta, UniProt Q9M7B8); conditions: for inhibition of CYP79D1 val-oxime formation: reconstitution in presence of inhibitor
# Experimental: Isolated, recombinant CYP79D1 is reconstituted and its catalytic activity determined in vitro using reaction mixtures with a total volume of 30 μl containing 2.5 pmol CYP79D1, 0.05 U NADPH P450-oxidoreductase (Benveniste et al, Biochem J 235: 365-373, 1986), 10.6 mM L-α-dioleyl phosphatidylcholine, 0.35 μCi [U-^14C]-L-amino acid (L-Val, L-Ile, L-Leu, L-Tyr or L-Phe; Amersham, Sweden), 1 mM NADPH, 0.1 M NaCl and 20 mM KPi pH 7.9. In assays containing ^14C-L-valine or ^14C-L-isoleucine, different amounts of unlabeled L- and D-amino acids (0-6 mM) are added. After incubation for 10 minutes at 30° C. the products formed are extracted into 60 μl ethyl acetate and separated on TLC sheets (Merck Kieselgel 60F254) using n-pentane/diethyl ether (50:50, v/v) or toluene/ethyl acetate (5:1, v/v) as eluents for aliphatic compounds and aromatic compounds, respectively. ^14C-labeled oximes are visualized and quantified using a STORM 840 phosphor imager (Molecular Dynamics, CA, USA). The activity of CYP79D1 is additionally measured in the presence of the inhibitors tetcyclasis, ABT and DPI under the same conditions as described above. For in vivo activity assays 200 μl P. pastoris cells are pelleted and resuspended in 100 μl 50 mM Tricine pH 7.9 and 0.35 μCi [U-^14C]-L-valine or L-isoleucine. After incubation for 30 minutes at 30° C. the cells are extracted with ethyl acetate and the products formed are analyzed as above.
# CYP79D1 is reconstituted with sorghum NADPH-P450 oxidoreductase in the presence of high amounts of the lipid L-α-dioleyl phosphatidylcholine and 100 mM NaCl. […] To examine the effect of inhibitors on isolated CYP79D1, reconstitutions are performed in the presence of tetcyclasis, ABT and DPI using the same conditions as for cassava microsomes.
# [6] = target: T3, CYP79D2 (Manihot esculenta, UniProt Q9M7B7); type: biochemical, cassava
# T3 construct: made in house
# Experimental: Investigations into the substrate specificity of CYP79D1, CYP79D2, CYP79E1, CYP79E2, CYP79A2, CYP79B2, CYP79B5 and CYP79F1 are carried out in E. coli spheroplasts reconstituted with sorghum NADPH-cytochrome P450 oxidoreductase in the presence of high amounts of lipids. L-α-dioleyl phosphatidyl choline and L-α-dilauroyl phosphatidyl choline are preferred lipids for the reconstitution. […] Depending on the nature of the substrate, substrate specificity may also be determined using intact P. pastoris cells or intact E. coli cells.
# The ability of a P450 monooxygenase to convert an aliphatic or aromatic amino acid or chain-elongated methionine homologue to the corresponding oxime can be tested in an assay (see also example 5) comprising
# a) incubating a reaction mixture comprising the P450 monooxygenase of the present invention or spheroplasts of E.coli cells expressing said enzyme, the parent amino acid, NADPH, oxygen, NADPH-cytochrome P450 oxidoreductase and lipid at ambient temperature for a certain period of time which is between 2 min and 2 to 6 hours;
# b) terminating the reaction for example by the addition of a denaturing compounds such as ethyl acetate; and
# c) chemically identifying and quantifying the aldoxime produced.
# [7] = substrate: N[C@@H](Cc1ccccc1)C(=O)O; experiment: purified protein, by the assay type; conditions: other: spheroplasts expressing 'native' CYP79A2, 2 hours at 26° C., pH 7.5
# T3 sequence (Q9M7B7 whole entry): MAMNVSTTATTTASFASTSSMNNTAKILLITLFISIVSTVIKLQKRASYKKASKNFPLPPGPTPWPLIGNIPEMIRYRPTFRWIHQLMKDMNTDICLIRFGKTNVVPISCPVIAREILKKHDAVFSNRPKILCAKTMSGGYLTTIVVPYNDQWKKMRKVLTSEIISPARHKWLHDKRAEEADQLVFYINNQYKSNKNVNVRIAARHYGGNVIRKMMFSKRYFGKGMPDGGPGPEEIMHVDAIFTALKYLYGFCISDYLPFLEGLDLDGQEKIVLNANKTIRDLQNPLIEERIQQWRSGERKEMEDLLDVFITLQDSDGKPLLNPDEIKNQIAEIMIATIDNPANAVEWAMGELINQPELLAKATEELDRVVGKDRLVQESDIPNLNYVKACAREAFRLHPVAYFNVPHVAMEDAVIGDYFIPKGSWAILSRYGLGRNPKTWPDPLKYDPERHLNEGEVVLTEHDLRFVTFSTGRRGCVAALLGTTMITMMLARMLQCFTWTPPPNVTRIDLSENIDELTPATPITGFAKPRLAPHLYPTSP
# CYP79D1, sequence (Q9M7B8 2-542): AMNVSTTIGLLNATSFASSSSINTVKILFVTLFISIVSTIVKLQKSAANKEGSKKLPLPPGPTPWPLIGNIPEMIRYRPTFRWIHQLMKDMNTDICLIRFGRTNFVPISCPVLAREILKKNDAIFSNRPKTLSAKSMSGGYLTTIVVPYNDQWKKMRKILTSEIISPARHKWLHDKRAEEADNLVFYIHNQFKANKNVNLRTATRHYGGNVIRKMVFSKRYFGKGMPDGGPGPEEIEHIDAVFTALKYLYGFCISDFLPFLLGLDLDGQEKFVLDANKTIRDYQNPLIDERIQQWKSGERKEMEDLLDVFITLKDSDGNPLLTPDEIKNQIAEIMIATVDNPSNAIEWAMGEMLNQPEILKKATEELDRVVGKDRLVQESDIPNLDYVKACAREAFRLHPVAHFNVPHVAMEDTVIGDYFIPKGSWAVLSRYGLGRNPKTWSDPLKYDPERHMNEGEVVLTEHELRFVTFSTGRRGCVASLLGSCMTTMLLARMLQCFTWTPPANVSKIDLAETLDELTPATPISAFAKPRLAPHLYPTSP
# CYP79F1, sequence (Q949U1 whole entry M2A): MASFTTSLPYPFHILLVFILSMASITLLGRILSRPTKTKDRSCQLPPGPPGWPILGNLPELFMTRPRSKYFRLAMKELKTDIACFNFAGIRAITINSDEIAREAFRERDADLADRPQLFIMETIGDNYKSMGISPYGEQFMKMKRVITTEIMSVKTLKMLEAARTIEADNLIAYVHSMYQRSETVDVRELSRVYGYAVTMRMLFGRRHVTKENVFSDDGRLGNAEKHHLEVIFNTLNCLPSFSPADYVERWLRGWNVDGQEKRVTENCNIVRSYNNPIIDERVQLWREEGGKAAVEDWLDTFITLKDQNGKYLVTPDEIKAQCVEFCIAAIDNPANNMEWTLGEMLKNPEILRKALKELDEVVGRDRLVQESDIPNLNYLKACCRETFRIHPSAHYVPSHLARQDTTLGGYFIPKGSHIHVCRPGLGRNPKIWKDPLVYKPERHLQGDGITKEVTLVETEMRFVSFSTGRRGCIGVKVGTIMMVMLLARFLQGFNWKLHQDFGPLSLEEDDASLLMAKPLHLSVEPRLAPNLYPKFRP
molecule,measurement,setting,value
CSCCCCC(N)C(=O)O (racemic) [DL-dihomomethionine],formation of the corresponding aldoxime by CYP79F1,[1],"two compounds, which are not present in the control reactions, are detected by GC-MS"
NC(CCc1ccccc1)C(=O)O (racemic) [DL-homophenylalanine],production of the respective aldoxime by CYP79A2,[2],absence of detectable amounts of the homophenylalanine-derived aldoxime
CSCCCCCC(N)C(=O)O (racemic) [DL-trihomomethionine],formation of the corresponding aldoxime by CYP79F1,[1],two compounds with retention times and fragmentation pattern identical with those of the E/Z-isomers of the synthetic 6-methylthiopentanaldoxime are detected
"Oc1ccc(Cl)cc1Cl [2,4-dichlorophenol, reference compound]",inhibition of CYP79B2 activity,"[3]; 100 mM H2O2, 1 mM MnCl2 or 800 μM 2,4-dichlorophenol added to reconstitution assay",72%
CC[C@@H](C)[C@@H](N)C(=O)O [D-isoleucine],metabolism / cyanide production by cassava microsomes,[4],no metabolism is observed
CC(C)[C@@H](N)C(=O)O [D-valine],binding to the active site of CYP79D1 (competition with 14C-L-valine),[5],does not bind with high affinity
same,formation of the corresponding oxime / metabolism by CYP79D1,[5],neither the cassava microsomes nor isolated CYP79D1 metabolize
same,metabolism / cyanide production by cassava microsomes,[4],no metabolism is observed
"c1ccc2c(c1)[I+]c1ccccc1-2 [DPI, reference compound]",inhibition of CYP79D1 val-oxime formation,[5],completely inhibits
CC[C@H](C)[C@H](N)C(=O)O [L-isoleucine],conversion rate relative to L-valine,[5],approximately 60%
same,formation of the corresponding oxime / metabolism by CYP79D1,[5],corresponding oximes are formed
same,conversion to the corresponding oxime by CYP79D2,[6],found to convert
same,metabolism / cyanide production by cassava microsomes,[4],cyanide is produced
CSCC[C@H](N)C(=O)O [L-methionine],formation of the corresponding aldoxime by CYP79F1,[1],did not result in the formation of detectable amounts of the corresponding aldoximes
same,production of the respective aldoxime by CYP79A2,[2],does not result in production of detectable amounts of the respective aldoximes
N[C@@H](Cc1ccccc1)C(=O)O [L-phenylalanine],conversion to the corresponding oxime by CYP79D2,[6],"Neither L-Leucine, L-phenylalanine nor L-tyrosine are metabolized"
same,formation of the corresponding aldoxime by CYP79F1,[1],did not result in the formation of detectable amounts of the corresponding aldoximes
same,oxime production by CYP79B2,"[3]; radiolabelled amino acid, TLC",No oxime producing activity is detected
same,production of the respective aldoxime by CYP79A2,[2]; TLC or GC-MS detection,produce two radiolabelled compounds which comigrate with the (E)- and (Z)-isomers of phenylacetaldoxime
CC(C)[C@H](N)C(=O)O [L-valine],formation of the corresponding oxime / metabolism by CYP79D1,[5],corresponding oximes are formed
same,conversion to the corresponding oxime by CYP79D2,[6],found to convert
same,metabolism / cyanide production by cassava microsomes,[4],cyanide is produced
CCCCCCCC/C=C\CCCCCCCC(=O)OCCOCC(OCCO)C1OCC(OCCO)C1OCCO (stereo not drawn) [Tween 80],increase in aldoxime production,[2]; additive at final concentration 0.083% (v/v),1.5 fold
N[C@@H](CCC(=O)N[C@@H](CS)C(=O)NCC(=O)O)C(=O)O [reduced glutathione],increase of CYP79B2 activity,[3]; addition of 1.5 mM,1.8 fold
same,effect on aldoxime production,[2]; additive at final concentration 3 mM,"stimulates aldoxime production, but to a lesser extent"
"Clc1ccc(N2N=NC3C4CC(C5N=NC45)C32)cc1 (stereo not drawn) [tetcyclasis, reference compound]",inhibition of CYP79D1 val-oxime formation,[5],inhibited
CYP79A2 (Arabidopsis thaliana) (protein) MLAFIIGLLLLALTMKRKEKKKTMLISPTRNLSLPPGPKSWPLIGNLPEILGRNKPVFRWIHSLMKELNTDIACIRLANTHVIPVTSPRIAREILKKQDSVFATRPLTMGTEYCSRGYLTVAVEPQGEQWKKMRRVVASHVTSKKSFQMMLQKRTEEADNLVRYINNRSVKNRGNAFVVIDLRLAVRQYSGNVARKMMFGIRHFGKGSEDGSGPGLEEIEHVESLFTVLTHLYAFALSDYVPWLRFLDLEGHEKVVSNAMRNVSKYNDPFVDERLMQWRNGKMKEPQDFLDMFIIAKDTDGKPTLSDEEIKAQVTELMLATVDNPSNAAEWGMAEMINEPSIMQKAVEEIDRVVGKDRLVIESDLPNLNYVKACVKEAFRLHPVAPFNLPHMSTTDTVVDGYFIPKGSHVLISRMGIGRNPSVWDKPHKFDPERHLSTNTCVDLNESDLNIISFSAGRRGCMGVDIGSAMTYMLLARLIQGFTWLPVPGKNKIDISESKNDLFMAKPLYAVATPRLAPHVYPT,Km,[7],6.7 μmol I^−1
